In PubChem BioAssay AID1996:
≈ marks a conversion by molar mass, not a printed value.

Conditions: buffer; pH 7.4; 200.0 µM

Structure (SMILES)	solubility kinetic
Fc1ccc(-c2csc(NC(=S)Nc3ccccc3)n2)cc1	0.0016 mg/mL (≈ 4.86 µM)
CN(C)c1nc2ncn(Cc3ccccc3)c2c(=O)[nH]1	> 0.0404 mg/mL
O=C(O)CCCN1C(=O)/C(=C/c2ccncc2)SC1=S	> 0.0463 mg/mL
CC(C)NCc1cc(Br)ccc1OCc1ccccc1.Cl	> 0.0556 mg/mL
Cc1cc(Nc2ccc(C(=O)O)cc2)nc(N)n1	0.028 mg/mL (≈ 115 µM)
Cc1c(-c2nc(-c3cccnc3)no2)cccc1[N+](=O)[O-]	0.002 mg/mL (≈ 7.09 µM)
CC(=O)N1CCN(C2=NC(=O)/C(=C\c3cccs3)S2)CC1	0.0387 mg/mL (≈ 120 µM)
Cc1ccccc1NC(=O)C1COc2ccccc2O1 (stereo not given)	0.0326 mg/mL (≈ 121 µM)
O=C1OC(NCc2cccnc2)(c2ccc(Cl)cc2)c2ccccc21 (stereo not given)	> 0.0526 mg/mL
Cc1ccc(C#CC[N+]2(C)CCCCC2)cc1.[Br-]	> 0.0462 mg/mL
Cc1cccc(C)c1NC(=O)Cc1cccs1	> 0.0368 mg/mL
CC(=O)c1ccc(NC(=O)Cc2ccsc2)cc1	> 0.0389 mg/mL
CCCn1c2ccccc2c2cnn(CC(=O)N(CC)CC)c(=O)c21	> 0.0511 mg/mL
O=[N+]([O-])c1ccc(CN2CCN(c3ccc([N+](=O)[O-])cc3)CC2)cc1	0.002 mg/mL (≈ 5.84 µM)
CC(=O)NC1(NC(C)=O)CCN(C)CC1	> 0.032 mg/mL
CC(=O)Oc1ccc2nc(-c3ccco3)oc(=O)c2c1	0.0277 mg/mL (≈ 102 µM)
COc1cccc2sc(/N=C/N(C)C)nc12	0.0336 mg/mL (≈ 143 µM)
COCCOC(=O)C1=C(C)NC(=O)NC1c1ccco1 (stereo not given)	> 0.042 mg/mL
O=C1OCc2ccc(NC(=O)c3c(F)cccc3Cl)cc21	0.002 mg/mL (≈ 6.54 µM)
Cc1ccc(Nc2ccc([N+](=O)[O-])cn2)cc1Cl	< 0.0002 mg/mL
CC1NC(=S)N(C2CCCCC2)C1=O (stereo not given)	> 0.0318 mg/mL
CCN(CC)c1nc(C)nc2c1sc(=S)n2C	0.0006 mg/mL (≈ 2.24 µM)
CC(C)(C)S(=O)(=O)c1cnc(N2CCOCC2)nc1N	0.0328 mg/mL (≈ 109 µM)
Cc1ccc(C2CCN(C(=O)Nc3ccc(F)cc3)C2)cc1 (stereo not given)	0.0017 mg/mL (≈ 5.7 µM)
COc1ccc(CCN2C(=NC(=O)C(C)C)SC3CS(=O)(=O)CC32)cc1 (stereo not given)	0.0066 mg/mL (≈ 16.6 µM)

Structure (SMILES)	solubility kinetic
COC(=O)c1ccc(N=C2SCC(=O)N2C)cc1	> 0.0396 mg/mL
O=C(NC1CCNCC1)C1CC1	> 0.0252 mg/mL
Cc1ccc(C(=O)OCc2cc(=O)n3ccsc3n2)s1	0.0068 mg/mL (≈ 22.2 µM)
CCC(=O)Nc1ccc(N/C(N)=N/c2nc(C)cc(C)n2)cc1	0.0361 mg/mL (≈ 116 µM)
c1ccc2c3c([nH]c2c1)C1(CCNCC1)NCC3	0.0347 mg/mL (≈ 144 µM)
O=C1COc2ccc(C(=O)CCl)cc2N1	> 0.0338 mg/mL
CS(=O)c1ccc(-n2c(=O)n(Cc3ccccc3)c(=O)c3[nH]cnc32)cc1 (stereo not given)	> 0.0571 mg/mL
COc1ccc(CCC(=O)OCC(=O)Nc2sccc2C#N)cc1	0.0229 mg/mL (≈ 66.5 µM)
CC(=O)c1csc(COc2ccc(Cl)cc2)n1	0.003 mg/mL (≈ 11.2 µM)
CN(C)c1ccc(NC(=O)c2ccc3nc[nH]c3c2)cc1	> 0.042 mg/mL
NC(=O)c1cc(S(=O)(=O)NCc2ccc(F)cc2)cs1	0.047 mg/mL (≈ 150 µM)
CC(NC(=O)c1cc(Br)cs1)C1CCCO1 (stereo not given)	> 0.0456 mg/mL
Cc1c[nH]c2ccccc12	0.0068 mg/mL (≈ 51.8 µM)
NCCc1c(C(=O)O)[nH]c2ccc([N+](=O)[O-])cc12	0.0354 mg/mL (≈ 142 µM)
CCCC#CCN1CCN(C23CC4CC(CC(C4)C2)C3)CC1	0.0426 mg/mL (≈ 142 µM)
CCOc1ccc(N2C(=O)CC(Cc3cc(C)cc(C)c3)C2=O)cc1 (stereo not given)	0.004 mg/mL (≈ 11.9 µM)
COc1ccccc1CNc1ncnc2sccc12	0.0345 mg/mL (≈ 127 µM)
COc1ccc(CC(=O)NCCc2ccc(OC)c(OC)c2)cc1	> 0.0494 mg/mL
Cc1cc(NC(=O)CN(C)S(=O)(=O)c2cccc(Cl)c2)no1	0.0105 mg/mL (≈ 30.5 µM)
N#Cc1c(F)cccc1N1CCN(Cc2ccc3c(c2)OCO3)CC1	0.0146 mg/mL (≈ 43 µM)
O=C(Nc1cccnc1Cl)c1ccc(=O)oc1	> 0.0376 mg/mL
O=C(/C=C/c1ccncc1)c1ccc2c(c1)OCCO2	0.0269 mg/mL (≈ 101 µM)
CC(CN1C(C)CCCC1C)OC(=O)c1cccc(F)c1.Cl (stereo not given)	> 0.0495 mg/mL
COC(=O)c1cc(NC(=O)c2ccc(F)cc2)cc(C(=O)OC)c1	0.0049 mg/mL (≈ 14.8 µM)
O=C1c2ccccc2C(=O)N1CCOc1ccccc1Cl	0.0035 mg/mL (≈ 11.6 µM)

Structure (SMILES)	solubility kinetic
Nc1nc(NC2CCCCC2)nc(NCCO)c1[N+](=O)[O-]	0.0381 mg/mL (≈ 129 µM)
OC[C@@H](O)C1OC2NC(=S)OC2C1O (stereo not given in full)	> 0.0332 mg/mL
COc1ccc(-c2cc(C(=O)Nc3cccc(Cl)c3)no2)cc1	< 0.0004 mg/mL
Cc1ccc(Cn2c(C)nc3ccc([N+](=O)[O-])cc3c2=O)cc1	0.0015 mg/mL (≈ 4.85 µM)
Cc1nc2ccccn2c1C(=O)C(=O)Nc1cc(F)ccc1F	0.004 mg/mL (≈ 12.7 µM)
N#Cc1ccc(NC(=O)C2=COCCO2)cc1	> 0.0345 mg/mL
Cc1ccc(CSc2nsc(C)c2C#N)cc1	0.0033 mg/mL (≈ 12.7 µM)
COc1nc(N(C)C)nc(N(C)c2cc(Cl)cc(Cl)c2)n1	0.0004 mg/mL (≈ 1.22 µM)
Cc1cc(C(=O)N2CCC(C(N)=O)CC2)c(C)o1	> 0.0375 mg/mL
C=CCN(CC=C)C(=S)Nc1ccc2nsnc2c1	> 0.0436 mg/mL
COc1cc(OC)cc(C(=O)NC(c2ccccc2)c2ccccc2)c1	< 0.0007 mg/mL
CN(CC(=O)NCc1ccco1)CC(=O)Nc1ccc(F)c(F)c1F	0.0452 mg/mL (≈ 127 µM)
CC(=O)Nc1ccc(NC(=O)c2ccc(Cl)nc2)cc1	> 0.0435 mg/mL
OCc1ccccc1OCCCOc1cccc2cccnc12	> 0.0464 mg/mL
Cc1nonc1OC(C)CNCCNc1ccc([N+](=O)[O-])cc1.Cl (stereo not given)	> 0.0537 mg/mL
CC(Sc1nnc2ccccn12)C(=O)Nc1ccc(N2CCOCC2)cc1 (stereo not given)	> 0.0575 mg/mL
Cc1ccc(S(=O)(=O)Nc2ccc(Oc3cccnc3)nc2)cc1	0.0168 mg/mL (≈ 49.2 µM)
CCN(CC)CCC#CC1(O)c2ccccc2-c2ccccc21	> 0.0458 mg/mL
Cc1nc([N+](=O)[O-])cn1CC(=O)c1ccc(F)cc1	> 0.0395 mg/mL
CC(C)c1nc(SCC(=O)c2ccc(F)cc2)c2ccccc2n1	0.0017 mg/mL (≈ 4.99 µM)
Cc1cccc(Nc2nc(-c3ccc(F)c(C)c3)cs2)n1	< 0.0002 mg/mL
CC(NC(=O)C12CC3CC(CC(C3)C1)C2)c1ccc(F)cc1 (stereo not given)	0.0014 mg/mL (≈ 4.64 µM)
CC(=O)c1cn(Cc2ccc(F)cc2)c2ccccc12	0.0019 mg/mL (≈ 7.11 µM)
CC(=O)N(/C=C1\SC(=S)N(c2ccccc2)C1=O)c1ccccc1	0.01 mg/mL (≈ 28.2 µM)
Cc1ccc(O)c(CNc2cnc3ccccc3c2)c1	0.0181 mg/mL (≈ 68.5 µM)

Continued, values first:

solubility kinetic	Structure (SMILES)
< 0.0007 mg/mL	CC(=O)c1cccc(NC(=O)c2cc(=O)c3ccccc3o2)c1
0.0502 mg/mL (≈ 130 µM)	CN(Cc1ccc2c(c1)OCCO2)C(=O)CN1C(=O)NC2(CCCCC2)C1=O
0.0175 mg/mL (≈ 46.7 µM)	Cc1ccc(S(=O)(=O)N2CCN(c3ncnc4sccc34)CC2)cc1
> 0.0515 mg/mL	O=C(O)c1cccc([N+](=O)[O-])c1C(=O)Nc1nc2ccccc2s1
0.0027 mg/mL (≈ 7.06 µM)	CN1C(=O)/C(=C/c2cn(CC(=O)N3CCCCC3)c3ccccc23)NC1=S
0.001 mg/mL (≈ 2.79 µM)	CC(=O)N1CCN(c2ccc(NC(=O)c3ccc(Cl)cc3)cc2)CC1
0.0462 mg/mL (≈ 140 µM)	O=S1(=O)CC(O)C(N(CCO)C(=S)Nc2ccccc2)C1 (stereo not given)
0.0322 mg/mL (≈ 132 µM)	c1ccc(-c2noc(CC3CCCCC3)n2)nc1
> 0.0464 mg/mL	CCN1CCN(C(=O)N(c2ccccc2)c2ccccc2)CC1
0.0063 mg/mL (≈ 19.3 µM)	CN1C(=O)c2ccc(NC(=O)CSc3ccccc3)cc2C1=O
> 0.0385 mg/mL	Cc1[nH]c2ccc(C(=O)N3CCCCC3)cc2c1C
0.0017 mg/mL (≈ 5.32 µM)	CSc1ccc(S(=O)(=O)N2c3ccccc3CC2C)cc1 (stereo not given)
0.0025 mg/mL (≈ 7.61 µM)	Cc1cc(=O)[nH]c2ccc(S(=O)(=O)NCc3ccccc3)cc12
0.0262 mg/mL (≈ 82.6 µM)	O=C(O)c1cccc(S(=O)(=O)N2CCc3ccccc3C2)c1
> 0.044 mg/mL	C#CCn1c(CCNC(=O)c2ccco2)nc2ccccc21
0.0022 mg/mL (≈ 7.4 µM)	CC(C)(C)c1ccc(C(=O)NCCOc2ccccc2)cc1
> 0.0483 mg/mL	CC(=O)Nc1ccccc1S(=O)(=O)CC1CC1(Cl)Cl (stereo not given)
0.0481 mg/mL (≈ 147 µM)	NC(=O)C(Cc1ccccc1)NC(=O)C12CC3CC(CC(C3)C1)C2 (stereo not given)
> 0.0511 mg/mL	Cc1onc(-c2c(F)cccc2Cl)c1C(=O)N1CCSCC1
0.004 mg/mL (≈ 8.41 µM)	COC(=O)Nc1ccc(S(=O)(=O)N2CCC(C(=O)NCc3ccc4c(c3)OCO4)CC2)cc1
> 0.067 mg/mL	Cc1ccc(S(=O)(=O)N2CCOCC2)cc1C(=O)OCC(=O)NCCc1ccccc1
> 0.0545 mg/mL	CN(C(=O)CC1C(=O)NCCN1Cc1ccc(F)cc1)C1CCOCC1 (stereo not given)
> 0.0459 mg/mL	O=C(Nc1ncccc1O)c1ccc(Oc2ccccc2)cc1

solubility kinetic	Structure (SMILES)
0.001 mg/mL (≈ 2.78 µM)	CS(=O)(=O)N1CCN(c2ccc(NC(=O)c3ccccc3)cc2)CC1
0.0023 mg/mL (≈ 7.48 µM)	CC1CCN(Cc2cc(=O)oc3ccc4ccccc4c23)CC1
0.0167 mg/mL (≈ 35.1 µM)	Cc1cc(C)c(S(=O)(=O)N2CCN(C3CC(=O)N(c4ccccc4Cl)C3=O)CC2)c(C)c1 (stereo not given)
> 0.0429 mg/mL	O=C(NCCOc1ccccc1)c1ccccc1[N+](=O)[O-]
> 0.0327 mg/mL	O=C(Cc1ccccc1)NN1CCCCC1
> 0.0472 mg/mL	CCOC(=O)Cn1cnc2scc(-c3ccccc3)c2c1=O
> 0.049 mg/mL	O=C(O)c1ccc(Cl)c(S(=O)(=O)NCc2cccnc2)c1
0.0258 mg/mL (≈ 70.5 µM)	O=C(Nc1ccccc1Cl)NC1(C(=O)N2CCOCC2)CCCCC1
> 0.0378 mg/mL	CNC(=O)N1c2ccccc2CCc2ccccc21
0.0009 mg/mL (≈ 2.91 µM)	Cc1cccc(C)c1OC(=O)CN1C(=O)c2ccccc2C1=O
0.0006 mg/mL (≈ 1.96 µM)	O=C(Nc1nc2ccccc2s1)c1c(F)cccc1Cl
> 0.047 mg/mL	CC(=O)N/C(=C\c1ccc(F)cc1)C(=O)OCc1ccccc1
0.0015 mg/mL (≈ 4.38 µM)	COc1cccc(CNC(=O)CC2Sc3ccccc3NC2=O)c1 (stereo not given)
0.02 mg/mL (≈ 61.8 µM)	CC(CCc1ccccc1)NS(=O)(=O)c1ccccc1Cl (stereo not given)
0.0373 mg/mL (≈ 144 µM)	CCCC1NC(C(=O)O)Cc2c1[nH]c1ccccc21 (stereo not given)
> 0.0466 mg/mL	O=C(NCCS(=O)(=O)N1CCCCCC1)c1ccccc1
0.0022 mg/mL (≈ 4.76 µM)	CC1CCC2(CC1)NC(=O)N(CC(=O)Nc1cccc(S(=O)(=O)N3CCCCC3)c1)C2=O (stereo not given)
> 0.0465 mg/mL	CN1CCN(C(=O)CNC(=O)Cc2ccc(Cl)cc2)CC1
< 0.0004 mg/mL	O=C(NCC(c1cccs1)N1CCc2ccccc21)c1ccccc1 (stereo not given)
0.0559 mg/mL (≈ 143 µM)	C[C@H](NS(=O)(=O)c1ccc(Cl)cc1)C(=O)OCC(=O)N1CCOCC1
> 0.0424 mg/mL	O=C(NCC(=O)N1CCOCC1)c1ccc(Cl)cc1
> 0.0327 mg/mL	c1ccc2c(c1)CC(CN1CCNCC1)O2 (stereo not given)
